Assay results reported in US20140171431A1, “AZOLE HETEROCYCLIC COMPOUND, PREPARATION METHOD, PHARMACEUTICAL COMPOSITION AND USE” (priority 2011, published 2014).
Read-outs that look alike come from different tables or passages of the source.

Experiments:
[1] = biological target: T1, Lp-PLA2 in rabbit serum (Oryctolagus cuniculus, UniProt G1SE06); assay: In vitro inhibitory activity towards the enzyme Lp-PLA2 in rabbit serum, [3H]PAF substrate; assay type: biochemical; conditions: for inhibition at 0.1 µM: 100 nM
T1 construct: from tissue; host or cells: rabbit serum
T1 sequence (G1SE06 22-423): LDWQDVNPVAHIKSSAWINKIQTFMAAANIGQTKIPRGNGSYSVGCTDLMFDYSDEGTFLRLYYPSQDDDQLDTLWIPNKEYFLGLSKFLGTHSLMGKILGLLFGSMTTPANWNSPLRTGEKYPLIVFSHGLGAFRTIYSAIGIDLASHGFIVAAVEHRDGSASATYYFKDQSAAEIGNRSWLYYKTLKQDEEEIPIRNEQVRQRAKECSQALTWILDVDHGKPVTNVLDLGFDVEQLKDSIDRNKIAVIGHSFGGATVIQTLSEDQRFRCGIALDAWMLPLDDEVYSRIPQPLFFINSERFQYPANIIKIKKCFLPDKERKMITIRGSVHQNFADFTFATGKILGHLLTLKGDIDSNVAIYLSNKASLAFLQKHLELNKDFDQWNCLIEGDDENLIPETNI

[2] = biological target: T2, Lp-PLA2 in human serum (Homo sapiens, UniProt Q13093); assay: In vitro inhibitory activity towards the enzyme Lp-PLA2 in human serum, [3H]PAF substrate; assay type: biochemical; conditions: for inhibition at 0.01 µM: 10 nM; for inhibition at 0.1 µM: 100 nM
T2 construct: from tissue
T2 sequence (Q13093 22-441): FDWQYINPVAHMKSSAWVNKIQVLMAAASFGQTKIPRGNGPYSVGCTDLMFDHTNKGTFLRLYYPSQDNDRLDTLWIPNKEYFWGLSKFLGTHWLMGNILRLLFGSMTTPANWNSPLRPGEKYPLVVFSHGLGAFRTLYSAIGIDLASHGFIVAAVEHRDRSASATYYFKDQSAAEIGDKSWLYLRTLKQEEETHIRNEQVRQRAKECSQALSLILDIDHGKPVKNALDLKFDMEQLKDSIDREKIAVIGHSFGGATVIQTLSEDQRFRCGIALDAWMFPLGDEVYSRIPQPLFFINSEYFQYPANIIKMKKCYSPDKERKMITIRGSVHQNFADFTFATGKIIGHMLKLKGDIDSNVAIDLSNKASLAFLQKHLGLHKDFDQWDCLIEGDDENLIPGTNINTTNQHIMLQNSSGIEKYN
Protocol: The activities of compounds were measured using [^3H] labeled platelet activating factor ([^3H]PAF, Perkinelmer, Lot NET910) as the substrate. The reaction was carried out in a system containing 50 mmol/l HEPES and 150 mmol/l NaCl (pH 7.4) in a total volume of 200 μl. First, 10 μL human plasma and 10 μl DMSO solution of the test compound were added to the system and preincubated for 10 min at 37° C. Then 20 nM [^3H]PAF was added as listed in table 1 to start the reaction and incubated for a further 10 min at 37° C. After that, 600 μl of CHCl3/MeOH (2:1) was added and the resulting mixture was mixed with vortex. After settled for a while, the mixture was centrifugated at 12000×g for 15 min. The supernatant was transferred to a new tube and 200 μl of CHCl3 was added and mixed by vortexing. The mixture was settled or centrifugated for 2 min. A 100 μl portion of the supernatant was then collected for radioactivity intensity measurement.

[3] = rabbit serum, read-out: inhibition, %
[4] = human serum, read-out: inhibition, %
[5] = read-out: inhibitory rate towards the rabbit serum derived Lp-PLA2 enzyme
[6] = read-out: inhibitory rate towards the human serum derived Lp-PLA2 enzyme

Compound	inhibition at 0.1 µM [1, 3] [%]	inhibition at 0.01 µM [2, 4] [%]	inhibition at 0.1 µM ([2]; human serum) [%]	inhibition at 1 µM ([1]; rabbit serum) [%]	inhibition at 0.1 µM [1, 5] [%]	inhibition at 0.01 µM [2, 6] [%]
CNC(=S)NCc1nnc(Cn2c(SCc3ccc(F)cc3)nc(=O)c3c2CCC3)n1Cc1ccc(-c2ccc(C(F)(F)F)cc2)cc1 [Example 113, 1-((5-((2-(4-fluorobenzylthio)-4-oxo-4,5,6,7-tetrahydro-1H-cyclopenta[d]pyrimidin-1-yl)methyl)-4-((4′-(trifluoromethyl)biphenyl-4-yl)methyl)-4H-1,2,4-triazol-3-yl)methyl)-3-methylthiourea]	64	56	91			
O=c1nc(SCc2ccc(F)cc2)n(Cc2nnc(C3CC3)n2Cc2ccc(-c3ccc(C(F)(F)F)cc3)cc2)c2c1CCC2 [Example 68, 1-((5-cyclopropyl-4-((4′-(trifluoromethyl)biphenyl-4-yl)methyl)-4H-1,2,4-triazol-3-yl)methyl)-2-(4-fluorobenzylthio)-6,7-dihydro-1H-cyclopenta[d]pyrimidin-4(5 H)-one]	34	93	97	87		
CN(CCN1CCCCC1)Cc1onc(Cn2c(SCc3ccc(F)cc3)nc(=O)c3c2CCC3)c1Cc1ccc(-c2ccc(C(F)(F)F)cc2)cc1 [Example 161, 2-(4-fluorobenzylthio)-1-((5-((methyl(2-(piperidin-1-yl)ethyl)amino)methyl)-4-((4′-(trifluoromethyl)biphenyl-4-yl)methyl)isoxazol-3-yl)methyl)-6,7-dihydro-1H-cyclopenta[d]pyrimidin-4(5H)-one]	99	100			> 90	> 80
CC(O)c1nnc(Cn2c(SCc3ccc(F)cc3)nc(=O)c3c2CCC3)n1Cc1ccc(-c2ccc(C(F)(F)F)cc2)cc1 (stereo not shown) [Example 120, 2-(4-fluorobenzylthio)-1-((5-(1-hydroxyethyl)-4-((4′-(trifluoromethyl)biphenyl-4-yl)methyl)-4H-1,2,4-triazol-3-yl)methyl)-6,7-dihydro-1H-cyclopenta[d]pyrimidin-4(5H)-one]	90	89	98		> 90	> 80
O=c1nc(SCc2ccc(F)cc2)n(Cc2nnc(CO)n2Cc2ccc(-c3ccc(C(F)(F)F)cc3)cc2)c2c1CCC2 [Example 72, 2-(4-fluorobenzylthio)-1-((5-(hydroxymethyl)-4-((4′-(trifluoromethyl)biphenyl-4-yl)methyl)-4H-1,2,4-triazol-3-yl)methyl)-6,7-dihydro-1H-cyclopenta[d]pyrimidin-4(5H)-one]	73	65	91			
CN(C)C1CCN(Cc2nnc(Cn3c(SCc4ccc(F)cc4)nc(=O)c4c3CCC4)n2Cc2ccc(-c3ccc(C(F)(F)F)cc3)cc2)CC1 [Example 103, 1-((5-((4-(dimethylamino)piperidin-1-yl)methyl)-4-((4′-(trifluoromethyl)biphenyl-4-yl)methyl)-4H-1,2,4-triazol-3-yl)methyl)-2-(4-fluorobenzylthio)-6,7-dihydro-1-cyclopenta[d]pyrimidin-4(5H)-one]	82	71	98			
CC(C)N(C)Cc1nnc(Cn2c(SCc3ccc(F)cc3)nc(=O)c3c2CCC3)n1Cc1ccc(-c2ccc(C(F)(F)F)cc2)cc1 [Example 82, 2-(4-fluorobenzylthio)-1-((5-((isopropyl(methyl)amino)methyl)-4-((4′-(trifluoromethyl)biphenyl-4-yl)methyl)-4H-1,2,4-triazol-3-yl)methyl)-6,7-dihydro-1H-cyclopenta[d]pyrimidin-4(5H)-one]	85	77	98			
C[N+](C)(C)Cc1nnc(Cn2c(SCc3ccc(F)cc3)nc(=O)c3c2CCC3)n1Cc1ccc(-c2ccc(C(F)(F)F)cc2)cc1 [Example 77, 1-(5-((2-(4-fluorobenzylthio)-4-oxo-4,5,6,7-tetrahydro-1H-cyclopenta[d]pyrimidin-1-yl)methyl)-4-((4′-(trifluoromethyl)biphenyl-4-yl)methyl)-4H-1,2,4-triazol-3-yl)-N,N,N-trimethylmethanaminium iodide]	93	97	98		> 90	> 80
CC(C)c1nnc(Cn2c(SCc3ccc(F)cc3)nc(=O)c3c2CCC3)n1Cc1ccc(-c2ccc(C(F)(F)F)cc2)cc1 [Example 67, 2-(4-fluorobenzylthio)-1-((5-isopropyl-4-((4′-(trifluoromethyl)biphenyl-4-yl)methyl)-4H-1,2,4-triazol-3-yl)methyl)-6,7-dihydro-1H-cyclopenta[d]pyrimidin-4(5H)-one]	91	92	98		> 90	> 80
O=c1nc(SCc2ccc(F)cc2)n(Cc2nnc(/C=N/N3CCCCC3)n2Cc2ccc(-c3ccc(C(F)(F)F)cc3)cc2)c2c1CCC2 [Example 117, (E)-2-(4-fluorobenzylthio)-1-((5-((piperidin-1-ylimino)methyl)-4-((4′-(trifluoromethyl)biphenyl-4-yl)methyl)-4H-1,2,4-triazol-3-yl)methyl)-6,7-dihydro-1H-cyclopenta[d]pyrimidin-4(5H)-one]	80	67	92			

More lines, now with the values ahead:

inhibition at 0.1 µM [1, 3] [%]	inhibition at 0.01 µM [2, 4] [%]	inhibition at 0.1 µM ([2]; human serum) [%]	inhibition at 1 µM ([1]; rabbit serum) [%]	inhibition at 0.1 µM [1, 5] [%]	inhibition at 0.01 µM [2, 6] [%]	Compound
94	92					CCN(CC)CCNC(C)c1nnc(Cn2c(SCc3ccc(F)cc3)nc(=O)c3c2CCC3)n1Cc1ccc(-c2ccc(C(F)(F)F)cc2)cc1 (stereo not shown) [Example 130, 1-((5-(1-(2-(diethylamino)ethylamino)ethyl)-4-((4′-(trifluoromethyl)biphenyl-4-yl)methyl)-4H-1,2,4-triazol-3-yl)methyl)-2-(4-fluorobenzylthio)-6,7-dihydro-1H-cyclopenta[d]pyrimidin-4(5H)-one]
61	59	91				O=c1nc(SCc2ccc(F)cc2)n(Cc2ncn(Cc3ccc(-c4ccc(C(F)(F)F)cc4)cc3)n2)c2c1CCC2 [Example 61, 2-(4-fluorobenzylthio)-1-((1-((4′-(trifluoromethyl)biphenyl-4-yl)methyl)-1H-1,2,4-triazol-3-yl)methyl)-6,7-dihydro-1H-cyclopenta[d]pyrimidin-4(5H)-one]
88.3	75	92	97.7			CCN(CC)Cc1cnc(Cn2c(SCc3ccc(F)cc3)nc(=O)c3c2CCC3)n1Cc1ccc(-c2ccc(C(F)(F)F)cc2)cc1 [Example 42, 1-((5-((diethylamino)methyl)-1-((4′-(trifluoromethyl)biphenyl-4-yl)methyl)-1H-imidazol-2-yl)methyl)-2-(4-fluorobenzylthio)-6,7-dihydro-1H-cyclopenta[d]pyrimidin-4(5H)-one]
90	97	99		> 90	> 80	CN(C)C(=O)c1cnc(Cn2c(SCc3ccc(F)cc3)nc(=O)c3c2CCC3)n1Cc1ccc(-c2ccc(C(F)(F)F)cc2)cc1 [Example 52, 2-((2-(4-fluorobenzylthio)-4-oxo-4,5,6,7-tetrahydro-1H-cyclopenta[d]pyrimidin-1-yl)methyl)-N,N-dimethyl-1-((4′-(trifluoromethyl)biphenyl-4-yl)methyl)-1H-imid azole-5-carboxamide]
88.3	85	97				CN(C)Cc1nnc(Cn2c(SCc3ccc(F)cc3)nc(=O)c3c2CCC3)n1Cc1ccc(-c2ccc(C(F)(F)F)cc2)cc1 [Example 75, 1-((5-((dimethylamino)methyl)-4-((4′-(trifluoromethyl)biphenyl-4-yl)methyl)-4H-1,2,4-triazol-3-yl)methyl)-2-(4-fluorobenzylthio)-6,7-dihydro-1H-cyclopenta[d]pyrimidin-4(5H)-one]
